# Measurements: publication PMC4721142, “Randomized controlled studies on the efficacy of antiarthritic agents in inhibiting cartilage degeneration and pain associated with progression of osteoarthritis in the rat” (Arthritis Research & Therapy, 2016)
# Several values for one entry are separate records, joined by “and”; a condition that tells them apart may be missing. Equal values may be shown once. Marks after values point to notes of the source that are not given here.
# Tests used:
# MIA rat model of OA [1] = test: MIA trial 3 histopathology (same doses as dRS test); format: in vivo; design: key to Cartilage matrix damage score: 5-point cartilage matrix score; key to Mean of all cartilage loss: approximate % loss, mean of four articular surfaces; Subchondral bone sclerosis: scale not given here; details: group mean
# From the text: For MIA trial 3, joints were fixed and toluidine blue–stained sections of the rat knees were comprehensively analyzed from test and control subjects as detailed in Additional file 1. Briefly, a 5-point cartilage matrix score was derived based upon (1) approximate percentage of total loss of articular chondrocytes for each of four articular surfaces, (2) estimated proteoglycan loss (via Safranin O staining), and (3) loss of interstitial matrix. Chondrocyte necrosis and proteolytic degeneration of the femurs were scored on a 5-point scale as in trial 1. A femoral cartilage degeneration score and a three-zone sum of the tibial cartilage degeneration scores (mean of three levels) were also summed to create a total cartilage degeneration score. The mean osteophyte score for each joint was added to this value to create a total joint score with matrix. Other parameters assessed included synovial membrane inflammation and proliferation. Representative images from each group were also collected (see, e.g., Fig. 4 and Additional file 1: Fig. S55, Trial 3). […]
# Hawes, APS, Pathologist). Treatments were masked during the assessment. Chondrocyte necrosis and proteolytic degeneration of the femurs were scored on a 5 point scale with 0 = None; 1 = <10%; […]
# For the histopathology of the MIA model in Trial 3, completed by Bolder BioPATH (and Dr.
# Bendele), a tolouidine blue stained slide containing both halves of the joint was comprehensively analyzed from test and control subjects. Approximate % of total loss of articular chondrocytes, loss of proteoglycan and loss of collagenous matrix were determined for each articular surface (medial tibial plateau (MTP), lateral tibial plateau (LTP), medial femoral condyle (MFC), and lateral femoral condyle (LFC). Chondrocyte loss was quantified by estimating the area of cartilage in which there were no apparently viable chondrocytes and proteoglycan loss was quantified by estimating differences in intensity of toluidine blue matrix staining. Loss of interstitial matrix was an indication of disruption and diminished type II collagen. Based on the mean % loss for the four surfaces in these parameters, a five point matrix score was utilized with the subchondral bone resorption, subchondral bone sclerosis and osteophyte scores to achieve a total joint score. […]
# […] steps, stained with toluidine blue (with a right and left halve per section), and analyzed for cartilage degeneration, proteoglycan loss, collagen damage, and osteophyte formation. Results were averaged across the 3 sections for an overall semi-quantitative score. Regional differences across the tibial plateau were taken into consideration by dividing each section into 3 zones delineated using an ocular micrometer (outside, middle, and inside). Scores were based on the percentage of area affected within the zone.
# Cartilage degeneration in the tibia was scored on a five point scale for each zone, collagen damage across the medial tibial plateau was measured by total width for each grade damage. Cartilage degeneration in the tibia was scored none to severe (numerical values 0-5) for each zone (area defined by micrometer) using the following criteria: […]
# MIA rat model of OA [2] = test: MIA trial 2 digital Randall-Selitto test (daily tacrolimus 0.3 or 0.6 mg/kg i.p., curcumin 50 mg/kg p.o., fluocinolone 0.01 mg/kg s.c.; weekly clonidine 0.1 mg/kg s.c.); format: in vivo; details: tacrolimus 0.3 mg/kg, other drugs single dose
# Protocol: The digital Randall-Selitto (dRS) test is said to be a reliable and repeatable measure of neuropathic, bone, and inflammatory pain behavior in several different models, including those of arthritic or joint pain [29, 31, 32]. Baseline and posttreatment values were evaluated using a dRS test device (IITC Life Science, Woodland Hills, CA, USA). Animals were allowed to acclimate to the testing room before all experimentation and for a minimum of 30 minutes before testing. To ensure that their hind limbs were accessible, the animals were gently suspended in a restraint sling. The joint compression threshold was measured once at each time point for the ipsilateral and contralateral knee joints. Pressure was applied gradually over approximately 10 seconds to the medial and lateral aspects of the knee joint. Measurements were taken from the first observed behavior of vocalization, struggle, or withdrawal. A cutoff value of 600 g was used to prevent injury to the animal.
# Following isoflurane anesthesia, 50 μl (2 mg) of MIA was injected into the synovial space of the left knee. Animals were randomly assigned to groups, and pain behavior was assessed 7, 14, 21, and 28 days following MIA injection and intervention using WB with the Stoelting incapacitance meter (trial 1) or the dRS test (trials 2 and 3). […] Animals received MIA treatment and then saline control or therapeutic. […] Histopathology was performed at each time point and at study termination. All studies were conducted in accordance with the International Association for the Study of Pain Guidelines and were approved by the Algos Therapeutics, Inc. Institutional Animal Care and Use Committee (IACUC) before initiation. Those running the studies were blind to the treatments. See Additional file 1 for further details.
# SW982 = test: Synovial toxicity (CellTiter-Glo), with or without TNF-α
# Protocol: Viability was measured with the CellTiter-Glo luminescent viability assay (Promega). […] To more accurately predict the effects of the drugs on osteoarthritic synovium, cells were tested with or without TNF-α (20 ng/ml; BioSource).
# In Vitro Toxicity Testing with a Synovial Cell Line
# Compounds were tested for synovial toxicity using SW982 cells alone or in the presence of TNF as
# [3] = Comparison of in vitro screens: overlapping effective and nontoxic range; details: for Overlapping effective and nontoxic range: inhibits with minimal or no toxicity to synovium or cartilage, overlapping range if effective in more than one assay;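 on all read-outs here: compares non-toxic ranges in synovial cells and chondrocytes with effective ranges against NFkB, MMP-13 and osteoclasts, giving their overlap as the predicted efficacy range in uM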
# [4] = tested on: Normal human articular chondrocytes; test: Cytotoxicity to chondrogenic pellets (CellTiter-Blue)
# Protocol: Differentiated chondrogenic pellets were used both to test the ability of drugs to block MMP-13 activity and to test for drug toxicity. […] Supernatants were collected and analyzed for MMP-13 using an enzyme-linked immunosorbent assay (GE Healthcare Life Sciences, Little Chalfont, UK). Cytotoxicity to pellets was assessed using CellTiter-Blue (Promega).
# [5] = published half-life; cited from earlier work
# RAW 264.7 cells = test: RANKL-mediated osteoclastogenesis / matrix resorption (Osteologic) assay; format: cell-based, murine
# Summary of the method: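 Agents were tested during or after differentiation. Wells were bleached and resorption pits were quantified by image analysis versus RANKL-only controls, using an unpaired t-test.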
SMILES,"Bone resorption percent, LFC (MIA rat model of OA [1]; i.a. weekly) [%]","Bone resorption percent, LTP (MIA rat model of OA [1]; i.a. weekly) [%]","Bone resorption percent, MFC (MIA rat model of OA [1]; i.a. weekly) [%]","Bone resorption percent, MTP (MIA rat model of OA [1]; i.a. weekly) [%]","Bone resorption percent, mean (MIA rat model of OA [1]; i.a. weekly) [%]",Bone resorption score (MIA rat model of OA [1]; i.a. weekly),Cartilage matrix damage score (MIA rat model of OA [1]; i.a. weekly),Mean of all cartilage loss (MIA rat model of OA [1]; i.a. weekly),Osteophyte measure (MIA rat model of OA [1]; i.a. weekly) [µm],Osteophyte score (MIA rat model of OA [1]; i.a. weekly),Subchondral bone sclerosis (MIA rat model of OA [1]; i.a. weekly),Total joint score w/o matrix (MIA rat model of OA [1]; i.a. weekly),Total joint score with matrix (MIA rat model of OA [1]; i.a. weekly),Non-toxic range (Synovial) (SW982) [µM],Overlapping effective and nontoxic range [3] [µM],Non-toxic range (Chondrocyte) [4] [µM],t 1/2 [5],further results
Clc1cccc(Cl)c1N=C1NCCN1 [Clonidine],51,61,47,65,56,3.0,3.0 and 3.0 ± 1.1,47.8,560.0,2.7,0.0,5.7,8.7 and 8.7 ± 3.3,1.56 to 100,10 to 100,0.156 to 100,α2-Receptor agonist and antihypertensive agent Possible induction of iNOS through NF-κB [77] t 1/2 = 6–20 h,"Bone resorption percent, LFC (MIA rat model of OA [1]; clonidine 100 μg/kg s.c.): 72%; Bone resorption percent, LTP (MIA rat model of OA [1]; clonidine 100 μg/kg s.c.): 87%; Bone resorption percent, MFC (MIA rat model of OA [1]; clonidine 100 μg/kg s.c.): 67%; Bone resorption percent, MTP (MIA rat model of OA [1]; clonidine 100 μg/kg s.c.): 83%; Bone resorption percent, mean (MIA rat model of OA [1]; clonidine 100 μg/kg s.c.): 77%; Bone resorption score (MIA rat model of OA [1]; clonidine 100 μg/kg s.c.): 4.3; Cartilage matrix damage score (MIA rat model of OA [1]; clonidine 100 μg/kg s.c.): 3.7 and 3.7 ± 0.9; Mean of all cartilage loss (MIA rat model of OA [1]; clonidine 100 μg/kg s.c.): 64.9; Osteophyte measure (MIA rat model of OA [1]; clonidine 100 μg/kg s.c.): 560.0 µm; Osteophyte score (MIA rat model of OA [1]; clonidine 100 μg/kg s.c.): 2.7; Subchondral bone sclerosis (MIA rat model of OA [1]; clonidine 100 μg/kg s.c.): 0.0; Total joint score w/o matrix (MIA rat model of OA [1]; clonidine 100 μg/kg s.c.): 7.0; Total joint score with matrix (MIA rat model of OA [1]; clonidine 100 μg/kg s.c.): 10.7 and 10.7 ± 2.8; dRS, hours after dosing with significant difference (MIA rat model of OA [2]; day 21): 3 h; Lowest inhibitory concentration, matrix resorption (RAW 264.7 cells): 10 µM"
"CC1(C)O[C@@H]2C[C@H]3[C@@H]4C[C@H](F)C5=CC(=O)C=C[C@]5(C)[C@@]4(F)[C@@H](O)C[C@]3(C)[C@]2(C(=O)CO)O1 [Fluocinolone, Fluocinolone Acetonide]",67,67,72,67,68,3.7,3.3 and 3.3 ± 1.2,53.7,706.7,3.3,0.0,7.0,10.3 and 10.3 ± 2.7,1.56 to 100,3.1 to 100,1.56 to 250,Corticosteroid (potent) Blocks IL-1 and TNF production and TNF-induced apoptosis [92] t 1/2 = 1.3 – 1.7 h,"dRS, hours after dosing with significant difference (MIA rat model of OA [2]; day 14): 5^e h; Non-toxic & predicted range of efficacy [3]: 3.1 to 250 µM; Effective range against Osteoclasts (RAW 264.7 cells): ≥ 9.77 nM; minimal effective concentration (RAW 264.7 cells; Mus musculus, RAW264.7, 168 h, read-out: Lowest inhibitory concentration, matrix resorption): 0.00977 µM"
